Measurements as given in US12319664B2, “Herbicidally active 3-phenylisoxazoline-5-carboxamides of cyclopentenylcarboxylic acid derivatives” (Bayer Aktiengesellschaft, priority 2018, dated 2025).

What was measured:
[1] = tested on: ALOMY; assay: Post-emergence herbicidal action against ALOMY; format: in vivo, Alopecurus myosuroides; details: application rate 80 g/ha, rated visually after about 3 weeks
Method in brief: (§1)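 Post-emergence spray, one-leaf stage; sandy loam, greenhouse; WP/EC in water + 0.5% additive, 600 l/ha; visual % damage vs untreated at ~3 wk (100% = dead).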

[2] = tested on: AVEFA; assay: Post-emergence herbicidal action against AVEFA; format: in vivo, Avena fatua; details: application rate 80 g/ha, rated visually after about 3 weeks
Method in brief: as §1

[3] = tested on: ECHCG; assay: Post-emergence herbicidal action against ECHCG; format: in vivo, Echinochloa crus-galli; details: application rate 80 g/ha, rated visually after about 3 weeks
Method in brief: as §1

[4] = tested on: LOLRI; assay: Post-emergence herbicidal action against LOLRI; format: in vivo, Lolium rigidum; details: application rate 80 g/ha, rated visually after about 3 weeks
Method in brief: as §1

[5] = tested on: AMARE; assay: Post-emergence herbicidal action against AMARE; format: in vivo, Amaranthus retroflexus; details: application rate 80 g/ha, rated visually about 3 weeks after treatment
Method in brief: as §1

[6] = tested on: PHBPU; assay: Post-emergence herbicidal action against PHBPU; format: in vivo, Pharbitis purpurea; details: application rate 80 g/ha, rated visually about 3 weeks after treatment
Method in brief: as §1

[7] = tested on: POLCO; assay: Post-emergence herbicidal action against POLCO; format: in vivo, Polygonum convolvulus; details: application rate 80 g/ha, rated visually about 3 weeks after treatment
Method in brief: as §1

[8] = tested on: STEME; assay: Post-emergence herbicidal action against STEME; format: in vivo, Stellaria media; details: application rate 80 g/ha, rated visually about 3 weeks after treatment
Method in brief: as §1

[9] = tested on: VIOTR; assay: Post-emergence herbicidal action against VIOTR; format: in vivo, Viola tricolor; details: application rate 80 g/ha, rated visually about 3 weeks after treatment
Method: [table] 2. Post-emergence herbicidal action against harmful plants and crop plant compatibility Seeds of monocotyledonous and dicotyledonous weeds and crop plants are placed in sandy loam in plastic or wood-fibre pots, covered with soil and cultivated in a greenhouse under controlled growth conditions. 2 to 3 weeks after sowing, the test plants are treated at the one-leaf stage. The compounds of the invention, formulated in the form of wettable powders (WP) or as emulsion concentrates (EC), are then sprayed onto the green parts of the plants as aqueous suspension or emulsion with addition of 0.5% additive at a water application rate of 600 l/ha (converted). After the test plants have been kept in the greenhouse under optimum growth conditions for about 3 weeks, the activity of the preparations is rated visually in comparison to untreated controls. For example, 100% activity=the plants have died, 0% activity=like control plants.

[10] = tested on: VERPE; assay: Post-emergence herbicidal action against VERPE; format: in vivo, Veronica persica; details: application rate 80 g/ha
Method in brief: as §1

[11] = tested on: SETVI; assay: Post-emergence herbicidal action against SETVI; format: in vivo, Setaria viridis; details: application rate 80 g/ha, rated visually after about 3 weeks
Method in brief: as §1

[12] = tested on: ABUTH; assay: Post-emergence herbicidal action against ABUTH; format: in vivo, Abutilon theophrasti; details: application rate 80 g/ha, rated visually about 3 weeks after treatment
Method in brief: as §1

[13] = tested on: HORMU; assay: Post-emergence herbicidal action against HORMU; format: in vivo, Hordeum murinum; details: application rate 80 g/ha
Method in brief: as §1

Structure (SMILES): CC(C)(C#N)NC(=O)C1C=CC(NC(=O)C2(C)CC(c3cc(F)cc(F)c3)=NO2)C1 (mixture of isomers) [II-10]
- Herbicidal action against [%] ALOMY [1]: 90%
- Herbicidal action against [%] AVEFA [2]: 90%
- Herbicidal action against [%] ECHCG [3]: 90%
- Herbicidal action against [%] LOLRI [4]: 90%
- Herbicidal action against [%] AMARE [5]: 80%
- Herbicidal action against [%] PHBPU [6]: 90%
- Herbicidal action against [%] POLCO [7]: 90%
- Herbicidal action against [%] STEME [8]: 90%
- Herbicidal action against [%] VIOTR [9]: 90%
- Herbicidal action against [%] VERPE [10]: 80%

Structure (SMILES): CC(C)C(C#N)NC(=O)C1C=CC(NC(=O)C2(C(F)(F)F)CC(c3cc(F)cc(F)c3)=NO2)C1 (mixture of isomers) [II-35]
- Herbicidal action against [%] ALOMY [1]: 90%
- Herbicidal action against [%] AVEFA [2]: 100%
- Herbicidal action against [%] LOLRI [4]: 90%
- Herbicidal action against [%] SETVI [11]: 80%
- Herbicidal action against [%] ABUTH [12]: 80%
- Herbicidal action against [%] AMARE [5]: 90%
- Herbicidal action against [%] PHBPU [6]: 90%
- Herbicidal action against [%] POLCO [7]: 90%
- Herbicidal action against [%] STEME [8]: 90%
- Herbicidal action against [%] VIOTR [9]: 90%
- Herbicidal action against [%] VERPE [10]: 90%
- Herbicidal action against [%] HORMU [13]: 80%

Structure (SMILES): COC(=O)C1C=CC(NC(=O)C2(C)CC(c3cccc(C#N)c3)=NO2)C1 (mixture of isomers) [Example I-080]
- Herbicidal action against [%] ALOMY [1]: 90%
- Herbicidal action against [%] AVEFA [2]: 100%
- Herbicidal action against [%] ECHCG [3]: 90%
- Herbicidal action against [%] LOLRI [4]: 90%
- Herbicidal action against [%] SETVI [11]: 80%
- Herbicidal action against [%] AMARE [5]: 90%
- Herbicidal action against [%] PHBPU [6]: 90%
- Herbicidal action against [%] POLCO [7]: 90%
- Herbicidal action against [%] STEME [8]: 90%
- Herbicidal action against [%] VIOTR [9]: 80%
- Herbicidal action against [%] VERPE [10]: 90%
- Herbicidal action against [%] HORMU [13]: 90%

Structure (SMILES): COc1cc(OC)cc(C2=NOC(C(=O)NC3C=CC(C(=O)OCC(F)(F)F)C3)(C(F)(F)F)C2)c1 (mixture of isomers) [Example I-052]
- Herbicidal action against [%] ALOMY [1]: 100%
- Herbicidal action against [%] AVEFA [2]: 100%
- Herbicidal action against [%] ECHCG [3]: 80%
- Herbicidal action against [%] LOLRI [4]: 100%
- Herbicidal action against [%] SETVI [11]: 90%
- Herbicidal action against [%] ABUTH [12]: 90%
- Herbicidal action against [%] AMARE [5]: 90%
- Herbicidal action against [%] PHBPU [6]: 80%
- Herbicidal action against [%] STEME [8]: 80%
- Herbicidal action against [%] VIOTR [9]: 80%
- Herbicidal action against [%] VERPE [10]: 80%
- Herbicidal action against [%] HORMU [13]: 100%

Structure (SMILES): N#Cc1cccc(C2=NOC(C(=O)NC3C=CC(C(=O)OCCCl)C3)(C(F)(F)F)C2)c1 (mixture of isomers) [Example I-088]
- Herbicidal action against [%] AVEFA [2]: 100%
- Herbicidal action against [%] ECHCG [3]: 90%
- Herbicidal action against [%] LOLRI [4]: 100%
- Herbicidal action against [%] SETVI [11]: 90%
- Herbicidal action against [%] ABUTH [12]: 90%
- Herbicidal action against [%] AMARE [5]: 90%
- Herbicidal action against [%] PHBPU [6]: 90%
- Herbicidal action against [%] POLCO [7]: 90%
- Herbicidal action against [%] STEME [8]: 90%
- Herbicidal action against [%] VIOTR [9]: 90%
- Herbicidal action against [%] VERPE [10]: 90%
- Herbicidal action against [%] HORMU [13]: 90%

Structure (SMILES): COC(=O)C1=CC[C@H](NC(=O)C2(C)CC(c3cc(F)cc(F)c3)=NO2)C1 (stereo partly shown) [III-10]
- Herbicidal action against [%] ALOMY [1]: 100%
- Herbicidal action against [%] AVEFA [2]: 100%
- Herbicidal action against [%] ECHCG [3]: 90%
- Herbicidal action against [%] LOLRI [4]: 100%
- Herbicidal action against [%] SETVI [11]: 90%
- Herbicidal action against [%] ABUTH [12]: 90%
- Herbicidal action against [%] AMARE [5]: 90%
- Herbicidal action against [%] PHBPU [6]: 90%
- Herbicidal action against [%] STEME [8]: 90%
- Herbicidal action against [%] VIOTR [9]: 90%
- Herbicidal action against [%] VERPE [10]: 90%
- Herbicidal action against [%] HORMU [13]: 100%

Structure (SMILES): C=CC1(C(=O)N[C@H]2CC=C(C(=O)OCCOCC)C2)CC(c2cc(F)cc(F)c2)=NO1 (stereo partly shown) [III-16]
- Herbicidal action against [%] AVEFA [2]: 100%
- Herbicidal action against [%] ECHCG [3]: 90%
- Herbicidal action against [%] LOLRI [4]: 100%
- Herbicidal action against [%] SETVI [11]: 80%
- Herbicidal action against [%] ABUTH [12]: 80%
- Herbicidal action against [%] AMARE [5]: 90%
- Herbicidal action against [%] PHBPU [6]: 90%
- Herbicidal action against [%] POLCO [7]: 90%
- Herbicidal action against [%] STEME [8]: 80%
- Herbicidal action against [%] VIOTR [9]: 90%
- Herbicidal action against [%] VERPE [10]: 80%
- Herbicidal action against [%] HORMU [13]: 90%

Structure (SMILES): CC1(C(=O)N[C@H]2CC=C(C(=O)OCc3ccccc3)C2)CC(c2cc(F)cc(F)c2)=NO1 (stereo partly shown) [III-12]
- Herbicidal action against [%] ALOMY [1]: 100%
- Herbicidal action against [%] AVEFA [2]: 100%
- Herbicidal action against [%] LOLRI [4]: 100%
- Herbicidal action against [%] SETVI [11]: 80%
- Herbicidal action against [%] ABUTH [12]: 90%
- Herbicidal action against [%] AMARE [5]: 90%
- Herbicidal action against [%] PHBPU [6]: 90%
- Herbicidal action against [%] POLCO [7]: 90%
- Herbicidal action against [%] STEME [8]: 80%
- Herbicidal action against [%] VIOTR [9]: 90%
- Herbicidal action against [%] VERPE [10]: 90%
- Herbicidal action against [%] HORMU [13]: 100%

Structure (SMILES): COC(=O)[C@@H]1C=C[C@H](NC(=O)C2(C(F)(F)F)CC(c3cc(F)cc(C#N)c3)=NO2)C1 (single isomer, unassigned) [Example I-097]
- Herbicidal action against [%] ALOMY [1]: 100%
- Herbicidal action against [%] AVEFA [2]: 90%
- Herbicidal action against [%] ECHCG [3]: 90%
- Herbicidal action against [%] LOLRI [4]: 100%
- Herbicidal action against [%] SETVI [11]: 90%
- Herbicidal action against [%] AMARE [5]: 80%
- Herbicidal action against [%] PHBPU [6]: 80%
- Herbicidal action against [%] POLCO [7]: 80%
- Herbicidal action against [%] STEME [8]: 80%
- Herbicidal action against [%] VIOTR [9]: 80%
- Herbicidal action against [%] VERPE [10]: 80%
- Herbicidal action against [%] HORMU [13]: 90%

Structure (SMILES): COC(=O)C(C)(C)NC(=O)C1C=CC(NC(=O)C2(C(F)(F)F)CC(c3cc(F)cc(F)c3)=NO2)C1 (mixture of isomers) [II-36]
- Herbicidal action against [%] ALOMY [1]: 90%
- Herbicidal action against [%] AVEFA [2]: 100%
- Herbicidal action against [%] LOLRI [4]: 90%
- Herbicidal action against [%] AMARE [5]: 90%
- Herbicidal action against [%] PHBPU [6]: 90%
- Herbicidal action against [%] POLCO [7]: 90%
- Herbicidal action against [%] VIOTR [9]: 90%
- Herbicidal action against [%] VERPE [10]: 80%
- Herbicidal action against [%] HORMU [13]: 80%

Structure (SMILES): CC1(C(=O)NC2C=CC(C(=O)O)C2)CC(c2cc(F)cc(C#N)c2)=NO1 (mixture of isomers) [Example I-075]
- Herbicidal action against [%] ALOMY [1]: 100%
- Herbicidal action against [%] ECHCG [3]: 90%
- Herbicidal action against [%] LOLRI [4]: 100%
- Herbicidal action against [%] SETVI [11]: 80%
- Herbicidal action against [%] ABUTH [12]: 80%
- Herbicidal action against [%] AMARE [5]: 90%
- Herbicidal action against [%] PHBPU [6]: 90%
- Herbicidal action against [%] POLCO [7]: 90%
- Herbicidal action against [%] STEME [8]: 90%
- Herbicidal action against [%] VIOTR [9]: 90%
- Herbicidal action against [%] VERPE [10]: 90%
- Herbicidal action against [%] HORMU [13]: 100%
